The results in this text go back to paper PMC2375326, “In vitro evaluation of amino acid prodrugs of novel antitumour 2-(4-amino-3-methylphenyl)benzothiazoles” (British Journal of Cancer, 2002).

Some results are limits rather than exact numbers.

Data set [1] deals with CYP1A1 activity (EROD) in MCF-7 cells. The experiment in a line: Induction of EROD activity in lysates of treated MCF-7 cells. In kind it is cell-based, human. Conditions: lysates of MCF-7 cells treated with 1 μM, 24 h; negligible activity in untreated lysates; mean of three, s.d. <10%. The protocol:
A sensitive and rapid fluorometric assay was used to measure EROD activity ([Burke et al, 1994]). Incubation mixtures (total 1 ml) consisted of 100 mM Tris-HCl (pH 7.4), 50 μM MgCl2, 100 μM 7-ethoxyresorufin and 100 μl cell homogenate. Homogenates were prepared following treatment of cells for 24 h with compounds 1, 2, 2a, 2b, 3, 3a, 3b, 4, 4a and 4b or vehicle alone and protein content determined (n=3). Thus induction of ethoxyresorufin O-deethylation by agents under study, catalysed by CYP1A1 activity, could be determined. Alternatively, microsomes expressing recombinant CYP1A1 (0.1 mg ml^−1) provided the enzyme source for EROD catalysis, in the presence or absence of drug, in order to determine inhibition of CYP1A1 activity by compounds 1, 2, 2a, 2b, 3, 3a, 3b, 4, 4a and 4b. Incubation mixtures were pre-incubated for 5 min at 37°C before initiation of reaction by addition of NADPH (500 μM). Following further incubations at 37°C (30 min for cell homogenates, 15 min for CYP1A1 microsomes), reactions were terminated by addition of 3 ml ice-cold acetonitrile. Reaction mixtures were centrifuged (1400 r.p.m., 10 min) before analyses of supernatants. Fluorescence was read on a Perkin-Elmer LS-5 luminescence spectrometer (excitation, 530 nm; emission 585 nm). Estimation of resorufin reaction product (pmoles mg^−1 protein, pmoles 100 μg^−1 microsomes), as a measure of CYP1A1 activity, was determined following performance of a resorufin standard curve.

A further data set has as its system SW-620. The experiment in a line: NCI in vitro cytotoxicity assay (SRB), SW-620. Conditions: Homo sapiens, 48 h exposure, sulforhodamine B assay, mean graph, read-out: Log10 GI50 (SW-620) (converted). The data set is classed as cell-based. How it is done: (§1) Cell culture and drug application procedures have been described previously ([Boyd and Paull, 1995]). Briefly, cell lines were inoculated into a series of 96-well microtiter plates, with varied seeding densities depending on growth characteristics of each cell line. Following a 24 h drug free incubation, test agents were added at five 10-fold dilutions with a maximum concentration of 100 μM. Cellular protein levels were determined after 48 h drug exposure by sulphorhodamine B colorimetry.

Another data set relates to IGROV1. Briefly: NCI in vitro cytotoxicity assay (SRB), IGROV1. In kind it is cell-based. Conditions: Homo sapiens, IGROV-1; 48 h exposure, sulforhodamine B assay, mean graph; read-out: Log10 GI50 (IGROV1) (converted). How it is done: as §1
For orientation: In SRB staining, fixed cells bind dye roughly in proportion to their protein.

The test system of another data set is OVCAR-3. The experiment in a line: NCI in vitro cytotoxicity assay (SRB), OVCAR-3. In kind it is cell-based. Conditions: Homo sapiens, 48 h exposure, sulforhodamine B assay, mean graph, read-out: Log10 GI50 (OVCAR-3) (converted). The protocol: as §1
The subject of a further data set is OVCAR-5. Briefly: NCI in vitro cytotoxicity assay (SRB), OVCAR-5. Conditions: Homo sapiens, 48 h exposure, sulforhodamine B assay, mean graph, read-out: Log10 GI50 (OVCAR-5) (converted). The data set is classed as cell-based. The protocol: as §1
A further data set relates to NCI-H322M. The experiment in a line: NCI in vitro cytotoxicity assay (SRB), NCI-H322M. Conditions: Homo sapiens, 48 h exposure, sulforhodamine B assay, mean graph, read-out: Log10 GI50 (NCI-H322M) (converted). The data set is classed as cell-based. How it is done:
as §1

A further data set has as its system K-562. The experiment in a line: NCI in vitro cytotoxicity assay (SRB), K-562. The data set is classed as cell-based. As to conditions: Homo sapiens, K562; 48 h exposure, sulforhodamine B assay, mean graph; read-out: Log10 GI50 (K-562) (converted). How it is done: as §1
For the next data set, the system named is T-47D. Briefly: NCI in vitro cytotoxicity assay (SRB), T-47D. In kind it is cell-based. Conditions: Homo sapiens, T47D; 48 h exposure, sulforhodamine B assay, mean graph; read-out: Log10 GI50 (T-47D) (converted). How it is done:
as §1

In another data set the test system is MDA-MB-435. The experiment in a line: NCI in vitro cytotoxicity assay (SRB), MDA-MB-435. In kind it is cell-based. Conditions: Homo sapiens, 48 h exposure, sulforhodamine B assay, mean graph, read-out: Log10 GI50 (MDA-MB-435) (converted). How it is done: as §1
Another data set has as its system LOX IMVI. Briefly: NCI in vitro cytotoxicity assay (SRB), LOX IMVI. In kind it is cell-based. As to conditions: Homo sapiens, 48 h exposure, sulforhodamine B assay, mean graph, read-out: Log10 GI50 (LOX IMVI) (converted). How it is done: as §1
Another data set concerns DU-145. Briefly: NCI in vitro cytotoxicity assay (SRB), DU-145. In kind it is cell-based. Conditions: Homo sapiens, 48 h exposure, sulforhodamine B assay, mean graph, read-out: Log10 GI50 (DU-145) (converted). The protocol: as §1
A further data set relates to U251. Briefly: NCI in vitro cytotoxicity assay (SRB), U251. The data set is classed as cell-based. As to conditions: Homo sapiens, U-251; 48 h exposure, sulforhodamine B assay, mean graph; read-out: Log10 GI50 (U251) (converted). How it is done:
as §1

The next data set deals with HCT-116. The experiment in a line: NCI in vitro cytotoxicity assay (SRB), HCT-116. Conditions: Homo sapiens, 48 h exposure, sulforhodamine B assay, mean graph, read-out: Log10 GI50 (HCT-116) (converted). The data set is classed as cell-based. How it is done: as §1
Another data set relates to NCI/ADR-RES. The experiment in a line: NCI in vitro cytotoxicity assay (SRB), NCI/ADR-RES. The data set is classed as cell-based. As to conditions: Homo sapiens, 48 h exposure, sulforhodamine B assay, mean graph, read-out: Log10 GI50 (NCI/ADR-RES) (converted). The protocol:
as §1

The next data set concerns UACC-62. The experiment in a line: NCI in vitro cytotoxicity assay (SRB), UACC-62. In kind it is cell-based. As to conditions: Homo sapiens, 48 h exposure, sulforhodamine B assay, mean graph, read-out: Log10 GI50 (UACC-62) (converted). How it is done:
as §1

A further data set deals with HOP-92. The experiment in a line: NCI in vitro cytotoxicity assay (SRB), HOP-92. Conditions: Homo sapiens, 48 h exposure, sulforhodamine B assay, mean graph, read-out: Log10 GI50 (HOP-92) (converted). The data set is classed as cell-based. How it is done: as §1
For the next data set, the system named is HT29. The experiment in a line: NCI in vitro cytotoxicity assay (SRB), HT29. The data set is classed as cell-based. Conditions: Homo sapiens, HT-29; 48 h exposure, sulforhodamine B assay, mean graph; read-out: Log10 GI50 (HT29) (converted). How it is done:
as §1

The next data set deals with SK-MEL-5. Briefly: NCI in vitro cytotoxicity assay (SRB), SK-MEL-5. The data set is classed as cell-based. As to conditions: Homo sapiens, 48 h exposure, sulforhodamine B assay, mean graph, read-out: Log10 GI50 (SK-MEL-5) (converted). The protocol:
as §1

The next data set deals with SNB-19. The experiment in a line: NCI in vitro cytotoxicity assay (SRB), SNB-19. As to conditions: Homo sapiens, 48 h exposure, sulforhodamine B assay, mean graph, read-out: Log10 GI50 (SNB-19) (converted). The data set is classed as cell-based. The protocol:
as §1

For another data set, the system named is 786-0. The experiment in a line: NCI in vitro cytotoxicity assay (SRB), 786-0. The data set is classed as cell-based. As to conditions: Homo sapiens, 48 h exposure, sulforhodamine B assay, mean graph, read-out: Log10 GI50 (786-0) (converted). How it is done: as §1
The test system of another data set is MOLT-4. The experiment in a line: NCI in vitro cytotoxicity assay (SRB), MOLT-4. The data set is classed as cell-based. Conditions: Homo sapiens, 48 h exposure, sulforhodamine B assay, mean graph, read-out: Log10 GI50 (MOLT-4) (converted). The protocol:
as §1

With `Cc1cc(-c2nc3cc(F)ccc3s2)ccc1NC(=O)[C@@H](N)CCCCN` [Compound 2b], the “Induction EROD activity” value in [1] is recorded as 35.56 nM resorufin mg^-1 protein. Also, the GI50 is 3.63 µM in the data set on SW-620; less than 0.01 µM in the data set with IGROV1; 10.7 µM in the data set with OVCAR-3; 0.126 µM in the data set with OVCAR-5; 3.09 µM with NCI-H322M; 2.29 µM with K-562. For the same compound, the GI50 was less than 0.01 µM in the data set with T-47D; 1.91 µM in the data set on MDA-MB-435; 2 µM in the data set on LOX IMVI; 16.2 µM with DU-145; 2.14 µM in the data set with U251; 2.88 µM in the data set with HCT-116. Also, the GI50 in the data set on NCI/ADR-RES was 15.1 µM; in the data set with UACC-62 it was 14.1 µM; in the data set with HOP-92 it was 15.1 µM; in the data set on HT29, 3.24 µM; in the data set with SK-MEL-5, 15.5 µM; in the data set with SNB-19, 13.5 µM. The GI50 with 786-0 is 4.07 µM; with MOLT-4 it was 1 µM.
Regarding `Cc1cc(-c2nc3cc(F)ccc3s2)ccc1N` [Compound 2, 2-(4-Amino-3-methylphenyl)-5-fluorobenzothiazole], the “Induction EROD activity” value in [1] is 36.64 nM resorufin mg^-1 protein. The GI50 with SW-620 was more than 100 µM; with IGROV1, less than 0.01 µM; in the data set on OVCAR-3, 24.5 µM; with OVCAR-5, 0.0107 µM; with NCI-H322M, 11 µM; with K-562 it was more than 100 µM. In addition, the GI50 with T-47D is less than 0.01 µM; with MDA-MB-435, more than 100 µM; in the data set with LOX IMVI, more than 100 µM; in the data set with DU-145 it was 95.5 µM; in the data set with U251, 41.7 µM; with HCT-116 it was 15.8 µM. Besides, the GI50 was 66.1 µM with NCI/ADR-RES; 57.5 µM in the data set with UACC-62; 36.3 µM in the data set with HOP-92; 63.1 µM in the data set on HT29; more than 100 µM in the data set with SK-MEL-5; 26.3 µM with SNB-19. The results for the GI50 in the data set on 786-0 and in the data set on MOLT-4 were 24 µM and more than 100 µM, respectively.
